For data set [1] the following is noted: Phase I clinical evaluation; cited from earlier work.
For a further data set, the system named is cancer cell lines. The settings on record: some cancer cell lines; cited from earlier work.
In data set [2] the test system is MDA MB231 (triple negative human breast cancer). In words: Cytotoxicity analysis by MTT assay. It counts as cell-based. The settings on record: MDA-MB-231, 96 hours exposure, read-out: IC50 (nanomolar) MDA MB 231 (Triple negative breast cancer cell line). How it is done: MDA MB231 (triple negative human breast cancer) was obtained from the American Type Culture Collection. The cell-line was maintained in monolayer culture in 75 cm^2 flasks (TPP, Switzerland) under a humidified 5% CO2 atmosphere at 37° C. The MDA MB231 cell line was maintained in high glucose DMEM (4.5 g\l; Invitrogen), foetal bovine serum (10%, Biosera UK), non-essential amino acids (ix; Invitrogen), L-glutamine (2 mM; Invitrogen) and Penicillin-Streptomycin (1% v/v, Invitrogen). For passaging, cells were washed with PBS (GIBCO 14040, Invitrogen, UK), incubated with trypsine (GIBCO 25300, Invitrogen, UK), and re-seeded into fresh medium. For seeding, cells were counted using a Neubauer haemocytometer (Assistant, Germany) by microscopy (Nikon, USA) on a non-adherent suspension of cells that were washed in PBS, trypsinised, centrifuged at 8° C. at 8000 rpm for 5 min and re-suspended in fresh medium.
The cells were grown in normal cell culture conditions at 37° C. under a 5% CO2 humidified atmosphere using appropriate medium. […] After 96 h of continuous exposure to each compound, the cytotoxicity was determined using the 3-(4,5-Dimethylthiazol-2-yl)-2,5-diphenyltetrazolium bromide (MTT) (Lancaster Synthesis Ltd, UK) colorimetric assay. Absorbance was quantified by spectrophotometry at X=570 nm (Envision Plate Reader, PerkinElmer, USA). […]

The text below walks through data of patent publication US10399970B2, “Pyrridinobenzodiazepine and benzopyrridodiazecine compounds” (FEMTOGENIX LIMITED, priority 2015, dated 2019).

SMILES strings stand for the structures.

`C=C1C[C@H]2C=Nc3cc(OCCCOc4cc5c(cc4OC)C(=O)N4CC(=C)C[C@H]4C=N5)c(OC)cc3C(=O)N2C1`: the adverse effects entry in data set [1] is “lower-limb edema and fatigue”. For the compound `COC(=O)c1cc(-c2ccc(NC(=O)c3nc(NC(=O)CCCOc4cc5c(cc4OC)C(=O)N4CCC[C@H]4C=N5)cn3C)cc2)cn1C`, the cytotoxic activity range result in the data set with cancer cell lines is “femtomolar range”. With `COC(=O)c1cc2cc(NC(=O)c3cc(NC(=O)CO[C@@H]4CCN5C(=O)c6cc(OC)c(OC)cc6N=C[C@@H]5C4)cn3C)ccc2s1` [Compound 23, Methyl 5-(4-(2-(((6aS,8R)-2,3-dimethoxy-12-oxo-6a,7,8,9,10,12-hexahydrobenzo[e]pyrido[1,2-a][1,4]diazepin-8-yl)oxy)acetamido)-1-methyl-1H-pyrrole-2-carboxamido)benzo[b]thiophene-2-carboxylate], the IC50 (commonly the midpoint of a concentration-inhibition curve) in data set [2] is 221 nM.
